Like-named read-outs stand apart in the source and are kept apart here.
Assays:
[1] = tested on: Erysiphe graminis f.sp. hordei; experiment: Erysiphe test (barley)/protective; type: in vivo; conditions: single active compound, application rate 12.5 g/ha, protective, evaluation 6 days after inoculation
Gibberella zeae = type: in vivo; conditions: single active compound, application rate 62.5 g/ha; barley, curative, evaluation 6 days after inoculation
Sphaerotheca fuliginea [2] = experiment: Sphaerotheca fuliginea test (cucumber)/protective; type: in vivo; conditions: protective, 7 days after inoculation; for pest or weed control at 2 g/ha: application rate 2 g/ha
Alternaria solani = Alternaria solani test (tomato)/protective; type: in vivo; conditions: protective, 3 days after inoculation
Phytophthora infestans = type: in vivo; conditions: tomato, protective, 3 days after inoculation
Alternaria mali = Alternaria mali test (in vitro)/microtitre plates; type: cell-based; conditions: microtitre plates, 5 days of incubation
Septoria tritici = Septoria tritici test (in vitro)/microtitre plates; type: cell-based; conditions: single active compound, application rate 0.01 ppm, microtitre plates, 7 days of incubation
Source text: For inoculation, a spore suspension of Septoria tritici is used.

Sphaerotheca fuliginea [3] = experiment: Sphaerotheca fuliginea test (gherkin)/protective; type: in vivo; conditions: protective, 21 days after inoculation, application rate 8 ppm
Puccinia recondita = experiment: Puccinia test (wheat)/curative; conditions: single active compound, application rate 62.5 g/ha, curative, evaluation 8 days after inoculation
Method: Puccinia Test (Wheat)/Curative
To test for curative activity, young plants are sprayed with a conidia suspension of Puccinia recondita. The plants remain in an incubation cabinet at 20° C. and 100% relative atmospheric humidity for 48 hours.
The plants are placed in a greenhouse at a temperature of about 20° C. and a relative atmospheric humidity of about 80% to promote the development of rust pustules.
Evaluation is carried out 8 days after the inoculation.

Botrytis cinerea = Botrytis cinerea test (bean)/protective; conditions: single active compound, application rate 5 g/ha, protective, evaluation 2 days after inoculation
Method: After the spray coating has dried on, 2 small pieces of agar colonized by Botrytis cinerea are placed onto each leaf. The inoculated plants are placed in a darkened chamber at about 20° C. and 100% relative atmospheric humidity.
The size of the infected areas on the leaves is evaluated 2 days after the inoculation.

Pyrenophora teres = Pyrenophora teres test (barley)/curative; conditions: single active compound, application rate 25 g/ha, curative, evaluation 12 days after inoculation
Method: Pyrenophora teres Test (Barley)/Curative
To test for curative activity, young plants are sprayed with a conidia suspension of Pyrenophora teres. The plants remain in an incubation cabinet at 20° C. and 100% relative atmospheric humidity for 48 hours.
The plants are placed in a greenhouse at a temperature of about 20° C. and a relative atmospheric humidity of about 80%.
Evaluation is carried out 12 days after the inoculation.

Rhizoctonia solani = Rhizoctonia solani test (in vitro)/microtitre plates; conditions: microtitre plates, 5 days of incubation
Method: Rhizoctonia solani Test (in vitro)/Microtitre Plates
The microtest is carried out in microtitre plates using potato dextrose broth (PDB) as liquid test medium.
For inoculation, a mycelium suspension of Rhizoctonia solani is used. After 5 days of incubation in the dark and with shaking (10 Hz), for each filled cavity of the microtitre plates, the light transmittance is determined with the aid of a spectrophotometer.

[4] = Podosphaera fuliginea, 168 h, application rate 0.5 g/ha, read-out: Efficacy in % found
[5] = Podosphaera fuliginea, 168 h, application rate 1 g/ha, read-out: Efficacy in % found
[6] = Podosphaera fuliginea, 168 h, read-out: Efficacy in % found
[7] = Podosphaera fuliginea, 168 h, application rate 20 g/ha, read-out: Efficacy in % found

For `Cn1cc(C(=O)Nc2ccc(F)cc2-c2ccc(Cl)c(Cl)c2)c(C(F)F)n1` [(1-1), N-(3′,4′-dichloro-5-fluoro-1,1′-biphenyl-2-yl)-3-(difluoromethyl)-1-methyl-1H-pyrazole-4-carboxamide], the “Efficacy in % found” value [1] was 0%, the “Efficacy in % found” value (Gibberella zeae) was 40% and the pest or weed control at 0.5 g/ha (Sphaerotheca fuliginea [2]; [4]) was 0%. It also gave a pest or weed control at 1 g/ha (Sphaerotheca fuliginea [2]; [5]) of 16%, a pest or weed control at 2 g/ha (Sphaerotheca fuliginea [2]; [6]) of 36% and a pest or weed control at 4 g/ha (Sphaerotheca fuliginea [2]; Podosphaera fuliginea, 168 h, application rate 4 g/ha, read-out: Efficacy in % found) of 30%. The “Efficacy in % found” value (Alternaria solani; application rate 0.5 g/ha) was 42%, the “Efficacy in % found” value (Alternaria solani; application rate 1 g/ha) was 61% and the “Efficacy in % found” value (Phytophthora infestans; application rate 0.5 g/ha) was 0%. The “Efficacy in % found” value (Phytophthora infestans; application rate 1 g/ha) was 0%, the “Efficacy in % found” value (Phytophthora infestans; application rate 5 g/ha) was 0% and the “Efficacy in % found” value (Phytophthora infestans; application rate 10 g/ha) was 0%. The “Efficacy in % found” value (Alternaria mali; 0.003 ppm) was 25%, the “Efficacy in % found” value (Alternaria mali; 0.03 ppm) was 51% and the “Efficacy in % found” value (Septoria tritici) was 15%. For the same molecule, the “Efficacy in % found” value (Sphaerotheca fuliginea [3]) was 60%, the “Efficacy in % found” value (Puccinia recondita) was 22% and the “Efficacy in % found” value (Botrytis cinerea) was 54%. The “Efficacy in % found” value (Pyrenophora teres) was 43%, the “Efficacy in % found” value (Rhizoctonia solani; 0.1 ppm) was 40% and the “Efficacy in % found” value (Rhizoctonia solani; 0.3 ppm) was 80%.

`Cc1nc(C(F)F)c(C(=O)Nc2ccccc2-c2ccc(Br)cc2)s1` [(1-7), N-(4′-bromo-1,1′-biphenyl-2-yl)-4-(difluoromethyl)-2-methyl-1,3-thiazole-5-carboxamide] gave a pest or weed control at 0.5 g/ha (Sphaerotheca fuliginea [2]; [4]) of 0%, a pest or weed control at 1 g/ha (Sphaerotheca fuliginea [2]; [5]) of 0% and a pest or weed control at 2 g/ha (Sphaerotheca fuliginea [2]; [6]) of 0%. For the same molecule, the “Efficacy in % found” value (Alternaria solani; application rate 0.5 g/ha) was 28% and the “Efficacy in % found” value (Alternaria solani; application rate 1 g/ha) was 63%.

`CO/C=C(\C(=O)OC)c1ccccc1Oc1cc(Oc2ccccc2C#N)ncn1` [(2-1) azoxystrobin] was tested, and the “Efficacy in % found” value (Sphaerotheca fuliginea [2]; application rate 0.5 g/ha) was 20%.

`CO/N=C(/C1=NOCCO1)c1ccccc1Oc1ncnc(Oc2ccccc2Cl)c1F` [(2-2) fluoxastrobin, fluoxastrobin, reference compound] was tested, and the pest or weed control at 1 g/ha (Sphaerotheca fuliginea [2]; [5]) was 0% and the “Efficacy in % found” value (Pyrenophora teres) was 0%.

`CNC(=O)/C(=N/OC)c1ccccc1Oc1ncnc(Oc2cccc(Cl)c2C)c1F` [(2-3), (2E)-2-(2-{[6-(3-chloro-2-methylphenoxy)-5-fluoro-4-pyrimidinyl]oxy}phenyl)-2-(methoxyimino)-N-methylethanamide, reference compound] was tested, and the “Efficacy in % found” value (Alternaria solani; application rate 0.5 g/ha) was 22%.

`CO/N=C(/C(=O)OC)c1ccccc1CO/N=C(\C)c1cccc(C(F)(F)F)c1` [(2-4) trifloxystrobin, trifloxystrobin, reference compound] was tested, and the “Efficacy in % found” value [1] was 78% and the pest or weed control at 2 g/ha (Sphaerotheca fuliginea [2]; [6]) was 10%.

With `CO/C=C(/C(=O)OC)c1ccccc1COc1cccc(C(F)(F)F)n1` [(2-11) picoxystrobin, picoxystrobin] the “Efficacy in % found” value (Puccinia recondita) was 78%.

`COC(=O)N(OC)c1ccccc1COc1ccn(-c2ccc(Cl)cc2)n1` [(2-12) pyraclostrobin, pyraclostrobin, reference compound] was tested, and the “Efficacy in % found” value (Gibberella zeae) was 80% and the pest or weed control at 2 g/ha (Sphaerotheca fuliginea [2]; [6]) was 0%.

With `CCCC1COC(Cn2cncn2)(c2ccc(Cl)cc2Cl)O1` (centres unmarked) [(3-3) propiconazole] the “Efficacy in % found” value (Alternaria solani; application rate 0.5 g/ha) was 3%.

In the case of `Fc1ccc(C2(Cn3cncn3)OC2c2ccccc2Cl)cc1` (centres unmarked) [(3-12) epoxyconazole, epoxiconazole], the “Efficacy in % found” value (Gibberella zeae) is reported as 0%.

With `OC(Cc1ccccc1Cl)(Cn1ncnc1S)C1(Cl)CC1` (centres unmarked) [(3-15) prothioconazole, prothioconazole, reference compound] the “Efficacy in % found” value [1] was 67% and the pest or weed control at 1 g/ha (Sphaerotheca fuliginea [2]; [5]) was 43%.

With `CC(C)(C)C(O)(CCc1ccc(Cl)cc1)Cn1cncn1` (centres unmarked) [(3-17) tebuconazole, tebuconazole, reference compound] the pest or weed control at 1 g/ha (Sphaerotheca fuliginea [2]; [5]) was 10% and the “Efficacy in % found” value (Pyrenophora teres) was 29%.

With `CC(C)(C)C(O)C(Oc1ccc(-c2ccccc2)cc1)n1cncn1` (centres unmarked) [(3-21) bitertanol] the “Efficacy in % found” value (Sphaerotheca fuliginea [2]; application rate 1 g/ha) was 0%.

For `Cc1ccc(N(SC(F)(Cl)Cl)S(=O)(=O)N(C)C)cc1` [(4-2) tolylfluanid], the “Efficacy in % found” value (Sphaerotheca fuliginea [2]; application rate 20 g/ha) was 0% and the “Efficacy in % found” value (Phytophthora infestans; application rate 10 g/ha) was 0%.

In the case of `Cc1ccc(C(C)NC(=O)[C@@H](NC(=O)OC(C)C)C(C)C)cc1` (some centres unmarked) [(5-1) iprovalicarb], the “Efficacy in % found” value (Phytophthora infestans; application rate 5 g/ha) is reported as 61% and the “Efficacy in % found” value (Phytophthora infestans; application rate 10 g/ha) is reported as 64%.

For `CC(C)OC(=O)N[C@H](C(=O)N[C@H](C)c1nc2ccc(F)cc2s1)C(C)C` [(5-3) benthiavalicarb], the “Efficacy in % found” value (Alternaria solani; application rate 1 g/ha) was 5% and the “Efficacy in % found” value (Phytophthora infestans; application rate 0.5 g/ha) was 56%.

In the case of `O=C(Nc1ccccc1-c1ccc(Cl)cc1)c1cccnc1Cl` [(6-2) boscalid], the “Efficacy in % found” value (Sphaerotheca fuliginea [3]) is reported as 50%.

`CC1(C(=O)Nc2ccc(O)c(Cl)c2Cl)CCCCC1` [(6-6) fenhexamid] was tested, and the “Efficacy in % found” value (Sphaerotheca fuliginea [2]; application rate 20 g/ha) was 0%.

With `N#Cc1ccccc1NC(=O)c1snc(Cl)c1Cl` [(6-11), 3,4-dichloro-N-(2-cyanophenyl)isothiazole-5-carboxamide] the “Efficacy in % found” value (Puccinia recondita) was 0%.

For `CC(C)CC(C)c1sccc1NC(=O)c1cn(C)nc1C(F)(F)F` (centres unmarked) [(6-14) penthiopyrad], the “Efficacy in % found” value (Sphaerotheca fuliginea [2]; application rate 4 g/ha) was 0%.

In the case of `CC(C)CC(C)c1sccc1NC(=O)c1cn(C)nc1C(F)(F)F` (centres unmarked) [(6-14), penthiopyrad], the “Efficacy in % found” value (Puccinia recondita) is reported as 44%.

`COCC(=O)N(c1c(C)cccc1C)[C@H](C)C(=O)OC` [(8-4) metalaxyl-M] was tested, and the “Efficacy in % found” value (Alternaria solani; application rate 0.5 g/ha) was 7%.

For `COC(=O)[C@@H](C)N(C(=O)Cc1ccccc1)c1c(C)cccc1C` [(8-5) benalaxyl-M], the “Efficacy in % found” value (Alternaria solani; application rate 0.5 g/ha) was 14%.

For `Cc1cc(C)nc(Nc2ccccc2)n1` [(9-3) pyrimethanil, pyrimethanil, reference compound], the pest or weed control at 20 g/ha (Sphaerotheca fuliginea [2]; [7]) was 0% and the “Efficacy in % found” value (Botrytis cinerea) was 4%.

With `COC(=O)Nc1nc2ccccc2[nH]1` [(10-3) carbendazim] the “Efficacy in % found” value (Alternaria mali; 0.03 ppm) was 15%.

`CCCOC(=O)NCCCN(C)C` [(11-2) propamocarb] was tested, and the “Efficacy in % found” value (Rhizoctonia solani; 0.1 ppm) was 25%.

For `CC(C)NC(=O)N1CC(=O)N(c2cc(Cl)cc(Cl)c2)C1=O` [(12-4) iprodione, iprodione, reference compound], the pest or weed control at 20 g/ha (Sphaerotheca fuliginea [2]; [7]) was 0% and the “Efficacy in % found” value (Botrytis cinerea) was 13%.

In the case of `[O-][n+]1nc(-n2ccnc2)nc2ccc(Cl)cc21` [(14-3) triazoxide, triazoxide, reference compound], the “Efficacy in % found” value (Septoria tritici) is reported as 29%.

With `CCO[PH](=O)[O-].CCO[PH](=O)[O-].CCO[PH](=O)[O-].[Al+3]` [(17-1) fosetyl-Al] the “Efficacy in % found” value (Rhizoctonia solani; 0.3 ppm) was 24%.

In the case of `N#Cc1c(Cl)c(Cl)c(Cl)c(C#N)c1Cl` [(19-2) chlorothalonil], the “Efficacy in % found” value (Sphaerotheca fuliginea [2]; application rate 20 g/ha) is reported as 0%.

`CSC1=N[C@@](C)(c2ccccc2)C(=O)N1Nc1ccccc1` [(19-3) fenamidone] was tested, and the “Efficacy in % found” value (Alternaria mali; 0.003 ppm) was 2%.

In the case of `CCCN(CC)CC1COC2(CCC(C(C)(C)C)CC2)O1` (centres unmarked) [(19-10) spiroxamine, spiroxamine, reference compound], the pest or weed control at 20 g/ha (Sphaerotheca fuliginea [2]; [7]) is reported as 0% and the “Efficacy in % found” value (Puccinia recondita) is reported as 0%.

For `CSC1=N[C@@](C)(c2ccccc2)C(=O)N1Nc1ccccc1` [(19-13) fenamidone], the “Efficacy in % found” value (Phytophthora infestans; application rate 0.5 g/ha) was 41%.

With `O=C(Nc1ccccc1)N(Cc1ccc(Cl)cc1)C1CCCC1` [(20-1) pencycuron] the “Efficacy in % found” value (Alternaria mali; 0.003 ppm) was 11%.

For `C[C@H](Nc1c(-c2c(F)cc(F)cc2F)c(Cl)nc2ncnn12)C(F)(F)F` [(22-1), 5-chloro-N-[(1S)-2,2,2-trifluoro-1-methylethyl]-6-(2,4,6-trifluorophenyl)[1,2,4]triazolo-[1,5-a]pyrimidine-7-amine, reference compound], the pest or weed control at 2 g/ha (Sphaerotheca fuliginea [2]; [6]) was 11%.

Molecule `CC(C)[C@@H](C)Nc1c(-c2c(F)cc(F)cc2F)c(Cl)nc2ncnn12` [(22-2), 5-chloro-N-[(1R)-1,2-dimethylpropyl]-6-(2,4,6-trifluorophenyl)[1,2,4]triazolo[1,5-a]-pyrimidine-7-amine, reference compound] has a pest or weed control at 1 g/ha (Sphaerotheca fuliginea [2]; [5]) of 22%.

From US9006143B2, “Synergistic fungicidal active substance combinations” (Bayer Intellectual Property GmbH, priority 2003, dated 2015)
